Patent US20240342168A1, “SMALL MOLECULE INHIBITORS FOR ANTI-CANCER COMBINATION THERAPY” (UNIVERSITY OF CAPE TOWN, priority 2021, published 2024)

Assays:
Assay type in all cases: cell-based
[1] = tested on: p65 reporter activity in SiHa cells; test: p65-luciferase reporter assay; settings: pre-treated with INI-43 then cisplatin
Procedure: (§1) SiHa cells were transfected with 100 ng p65-luciferase reporter construct (containing five copies of the p65-binding site, Promega) or 200 ng p53-luciferase reporter construct (containing thirteen wildtype p53 binding sites, Addgene plasmid #16442, Addgene Plasmid Repository (el-Deiry W S, Tokino T, Velculescu V E, Levy D B, Parsons R, Trent J M, et al. WAF1, a potential mediator of p53 tumor suppression. Cell. 1993; 75(4):817-25) and 10 ng pRL-TK (encoding Renilla luciferase, Promega), using Genecellin transfection reagent (Celtic Molecular Diagnostics). The following day cells were treated with 5 μM INI-43 for 2 h, followed by 30 μM cisplatin for 24 h, and luciferase activity assayed using the Dual-Luciferase Report assay system (Promega), according to the manufacturer's instructions. Luciferase readings were measured using the Veritas™ microplate luminometer (Promega) and normalised to Renilla luciferase from the same extract.

[2] = tested on: p53, p21 and Mcl-1 in SiHa cells; test: Western blot of p53 and p53 targets
Procedure: (§2) For protein extraction, cells were washed with PBS and lysed using RIPA buffer (50 mM Tris-CI, pH 7.4, 150 mM NaCl, 1% (w/v) sodium deoxycholate, 0.1% (v/v) SDS, 1% (v/v) Triton X-100, 2 mM EGTA, 2 mM EDTA, 50 mM NaF, 5 mM Na2P2O7, 1× complete protease inhibitor cocktail (Roche) and 0.1 M Sodium Orthovanadate). For PARP cleavage analysis, dead cells were collected by centrifugation and combined with live cell lysates. Lysates were sonicated, centrifuged, and the supernatant quantified using the BCA Protein Assay Kit (Pierce, Thermo Scientific) according to the manufacturer's instructions. Proteins were subjected to Western blot analysis using the following antibodies: rabbit anti-Kpnβ1 (H-300, sc-11,367, Santa Cruz), rabbit anti-β-tubulin (H-235, sc-9104, Santa Cruz), rabbit anti-PARP1/2 antibody (H-250, sc-7150, Santa Cruz), mouse anti-GAPDH (0411, sc-47,724, Santa Cruz), rabbit anti-p21 (H-164, sc-756, Santa Cruz), rabbit anti-Mcl-1 (H-260, sc-20,679, Santa Cruz), mouse anti-cyclin D1 (HD11, sc-246, Santa Cruz), rabbit anti-c-Myc (N-262, sc-764, Santa Cruz), mouse anti-p53 (DO-7, M7001, DakoCytomation), mouse anti-XIAP (610,763, BD Biosciences), and rabbit anti-phospho-Histone H2AX (γH2AX, Ser139, 20E3, #9718, Cell Signal).

HeLa cells [3] = test: PARP cleavage by Western blot
Procedure: as §2

SiHa cells [4] = test: PARP cleavage by Western blot
Procedure: as §2

HeLa cells [5] = test: Caspase-3/7 assay (Caspase-Glo 3/7); settings: INI-43 pre-treatment plus cisplatin, 48 h
Procedure: (§3) Cells were subjected to single or CT for 48 h, and caspase-3/7 activity monitored using the Promega Caspase-Glo^R 3/7 assay, according to the manufacturer's instructions. Luminescence was measured using the Veritas™ microplate luminometer (Promega) and results standardized to viable cells in each treatment as determined by MTT assays performed in parallel.

SiHa cells [6] = test: Caspase-3/7 assay (Caspase-Glo 3/7); settings: INI-43 pre-treatment plus cisplatin, 48 h
Procedure: as §3

[7] = tested on: NFκB-p50 and NFκB-p65 in SiHa cells; test: Immunofluorescence of NFκB nuclear localization
Procedure: SiHa cells were plated on glass coverslips and treated for 24 h before fixation with 4% paraformaldehyde. Cells were permeabilised using 0.5% Triton-X-100/PBS and blocked using 1% BSA/PBST with 0.3 M Glycine. Primary antibody incubations were performed in 1% BSA/PBST, followed by secondary antibody incubation (Cy3 conjugated goat anti-rabbit, Jackson ImmunoResearch). Cell nuclei were counterstained with 0.5 μg/mL DAPI, and images captured using the Zeiss inverted fluorescence microscope under 100× oil immersion.

[8] = tested on: cyclin D1, c-Myc and XIAP; test: Western blot of NFκB targets; settings: INI-43-cisplatin combination vs single cisplatin, concentration dependent
Procedure: as §2

p53 in SiHa cells = test: p53 half-life determination (cycloheximide chase, Western blot); settings: 5 μM INI-43 2 h vs DMSO, then 50 μg/mL CHX
Procedure: Cells were treated with 5 μM INI-43 or DMSO for 2 hours or transfected with 20 nM si-ctrl or si-Kpnβ1 for 48 h prior to p53 half-life determination. Cells were treated with 50 μg/mL cycloheximide (CHX), and protein harvested at 0, 15, 30, 45, 60 and 90 min after CHX treatment. p53 content was analysed by western blotting. Bands were quantified by densitometrical scanning using ImageJ, normalised to GAPDH and expressed as a value relative to p53 intensity at time 0. Relative band intensities were plotted in log scale against time of CHX treatment and a linear trendline drawn. The half-life was calculated using the formula T1/2 (minutes)=Log(2)/[slope].

[9] = tested on: p53 reporter activity in SiHa cells; test: p53-luciferase reporter assay
Procedure: as §1

[10] = INI-43 pre-treatment plus cisplatin

`CN(C)CCCn1c(N)c(-c2nc3ccccc3[nH]2)c2nc3ccccc3nc21` [INI-43] was tested, and the “cisplatin-induced increase in p65 activity” value [1] was “reduced”, the “Mcl-1 levels, INI-43 and cisplatin vs single cisplatin” value ([2]; 60 μM cisplatin) was “reduced” and the “p21 levels, INI-43 and cisplatin vs single cisplatin” value ([2]; 30 and 60 μM cisplatin) was “elevated”. For the same molecule, the p53 protein levels ([2]; SiHa, treatment with INI-43 and cisplatin) was “increased”, the “apoptosis (PARP cleavage), INI-43 on its own” value (HeLa cells [3]; 5 μM INI-43) was “negligible apoptosis” and the “PARP cleavage, combination treated vs cisplatin only” value (HeLa cells [3]; [10]) was “enhanced PARP cleavage”. The “apoptosis (PARP cleavage), INI-43 on its own” value (SiHa cells [4]; 5 μM INI-43) was “negligible apoptosis”, the “PARP cleavage, combination treated vs cisplatin only” value (SiHa cells [4]; [10]) was “enhanced PARP cleavage” and the “increase in caspase-3/7 activation, combination vs cisplatin only” value (HeLa cells [5]) was 3.6 fold. The “increase in caspase-3/7 activation, combination vs cisplatin only” value (SiHa cells [6]) was 2.8 fold, the “nuclear fluorescence relative to cytoplasmic fluorescence (Fc (Nu/Cy))” value ([7]; INI-43-cisplatin CT vs cisplatin) was “significantly reduced this effect” and the “cisplatin-induced nuclear translocation of NFκB-p50 and NFκB-p65” value [7, 10] was “prevented this nuclear translocation”. For the same molecule, the “levels of cyclin D1, c-Myc and XIAP” value [8] was “all reduced”, the “increase in p53 half-life” value (p53 in SiHa cells) was roughly 2.9 fold and the p53 reporter activity ([9]; 5 μM INI-43 alone, 24 h) was “small but significant increase”. For the same molecule, the p53 reporter activity ([9]; INI-43 pre-treatment plus cisplatin vs cisplatin alone) was “significantly increased”.
